Values of other authors in US12376586B2, “Microcapsules comprising cinmethyln in the core and a polyurea derived from diphenylmethane diisocyanate or an oligomer thereof” (BASF Agro B.V., priority 2017, dated 2025).

Key:
[1] = at 20° C.
[2] = at 20° C.; remark: listed apart in the source

## Cc1ccccc1CO[C@@H]1C[C@]2(C(C)C)CC[C@@]1(C)O2 (racemic) [Cinmethylin, (±)-2-exo-(2-methylbenzyloxy)-1-methyl-4-isopropyl-7-oxabicyclo[2.2.1]heptane]
[1]
  solubility in water: 0,063 g·L^−1
[2]
  vapor pressure: 8.1·10^−3 Pa
